Results taken from patent US6596772B1, “Phosphate mimics and methods of treatment using phosphatase inhibitors” (Sugen, Inc., priority 1999, dated 2003).
Read-outs that look alike come from different tables or passages of the source. Blank lines part the entries; values can stand above or below the compound they belong to.

Assays:
Assay in all cases: PTP IC50 assay, pNPP or FDP as substrate
Type in all cases: biochemical
PTP MEG2 = biological target: T1, PTP MEG2 (Homo sapiens, UniProt P43378)
T1 construct: made in house; host or cells: E. coli BL-21 (pGEX 6P-1)
T1 sequence (P43378 262-593 limits assumed): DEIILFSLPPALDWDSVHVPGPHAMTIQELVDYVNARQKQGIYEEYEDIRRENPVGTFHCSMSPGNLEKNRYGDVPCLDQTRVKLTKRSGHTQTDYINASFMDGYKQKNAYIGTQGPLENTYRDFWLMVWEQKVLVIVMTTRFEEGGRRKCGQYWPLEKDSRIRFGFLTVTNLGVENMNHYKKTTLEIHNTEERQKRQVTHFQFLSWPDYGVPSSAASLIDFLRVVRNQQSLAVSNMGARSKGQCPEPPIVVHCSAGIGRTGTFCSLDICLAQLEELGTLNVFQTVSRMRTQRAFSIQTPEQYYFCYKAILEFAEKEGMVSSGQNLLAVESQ
Procedure: (§1) The following in vitro assay procedure is preferred to determine the level of activity and effect of the different compounds of the present invention on one or more of the PTPs. Similar assays can be designed along the same lines for any PTP using techniques well known in the art.
(§2) The catalytic assays described herein are performed in a 96-well format. The general procedure begins with the determination of PTP optimal pH using a three-component buffer system that minimizes ionic strength variations across a wide range of buffer pH. Next, the Michaelis-Menten constant, or Km, is determined for each specific substrate-PTP system. This Km value is subsequently used as the substrate reaction concentration for compound screening. Finally, the test PTP is exposed to varying concentrations of compound for fifteen minutes and allowed to react with substrate for ten minutes. The results are plotted as percent inhibition versus compound concentration and the IC50 interpolated from the plot.
(§3) All assays were performed using pNPP or FDP as substrate. The optimum pH was determined for each PTP used.
(§4) PTPase activity was assayed at 25° C. in a 100-μl reaction mixture containing an appropriate concentration of pNPP or FDP as substrate. The reaction was initiated by addition of the PTP and quenched after 10 min by addition of 50 μl of IN NaOH. The non-enzymatic hydrolysis of the substrate was corrected by measuring the control without the addition of the enzyme. The amount of p-nitrophenol produced was determined from the absorbance at 410 nm. To determine the kinetic parameter, Km, the initial velocities were measured at various substrate concentrations and the data were fitted to the Michaelis equation where velocity=(Vmax*[S])/(Km+[S]), and [S]=substrate reaction concentration.
(§5) The effect of the compounds on PTP was evaluated at 25° C. using pNPP or FDP as substrate. PTP was pre-incubated for fifteen minutes with various concentrations of compound. Substrate was then added at a fixed concentration (usually equal to the Km previously calculated). After 10 minutes, NaOH was added to stop the reaction. The hydrolysis of pNPP was followed at 410 nm on the Biotek Powerwave 200 microplate scanning spectrophotometer. The percent inhibition was calculated as follows: Percent Inhibition=[(control signal−compound signal)/control signal] ×100%. The IC50 was then determined by interpolation of a percent inhibition versus compound concentration plot.
(§6) Plasmids designed for bacterial GST-PTP fusion protein expression were derived by insertion of PCR-generated human PTP fragments into pGEX vectors (Pharmacia Biotech). Several of these constructs were then used to subclone phosphatases into pFastBac-1for expression in Sf-9 insect cells. Oligonucleotides used for the initial amplification of PTP genes are shown below. The cDNAs were prepared using the Gilbo BRL superscript preamplification system on RNAs purchased from Clontech.
The PTP MEG2 cDNA was amplified from human placenta single strand cDNA (Clontech RNA) using the following oligonucleotides: 5′oligo: 5′-[…]-3′ (SEQ ID NO: 8) 3′oligo: 5′-[…]-3′ (SEQ ID NO: 9) and subsequently ligated into pGex 6P-1 Eco RI/Xho I sites.

PTP BETA = biological target: T2, PTP BETA (Homo sapiens, UniProt P23467)
T2 construct: The catalytic domain was amplified using the following oligonucleotides; made in house; host or cells: E. coli BL-21 (pGEX 6P-1)
T2 sequence (P23467 1653-1997): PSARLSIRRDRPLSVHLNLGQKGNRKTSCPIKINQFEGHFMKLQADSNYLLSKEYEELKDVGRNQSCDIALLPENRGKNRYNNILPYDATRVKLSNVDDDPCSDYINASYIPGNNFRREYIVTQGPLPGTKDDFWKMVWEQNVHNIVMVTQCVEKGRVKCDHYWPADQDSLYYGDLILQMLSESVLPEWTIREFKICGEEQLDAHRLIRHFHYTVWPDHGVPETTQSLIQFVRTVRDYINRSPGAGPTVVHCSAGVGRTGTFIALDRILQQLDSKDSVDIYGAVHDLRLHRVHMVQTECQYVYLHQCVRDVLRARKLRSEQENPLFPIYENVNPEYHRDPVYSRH
Procedure: as §1, §2, §3, §4, §5, §6
The PTP Beta cDNA used has been described earlier (Levy et al., 1993, J. Biol. Chem, 268:10573-10581). The catalytic domain was amplified using the following oligonucleotides: 5′oligo: 5′-[…]-3′ (SEQ ID NO: 16) 3′oligo: 5′-[…]-3′ (SEQ ID NO: 17) and subsequently cloned into the Eco RI/Xho I sites of pGEX 6P-1.

PTP SIGMA = biological target: T3, PTP SIGMA (Homo sapiens, UniProt Q13332)
T3 construct: made in house; host or cells: E. coli BL-21 (pGEX 6P-1)
T3 sequence (Q13332 1320-1660 limits assumed): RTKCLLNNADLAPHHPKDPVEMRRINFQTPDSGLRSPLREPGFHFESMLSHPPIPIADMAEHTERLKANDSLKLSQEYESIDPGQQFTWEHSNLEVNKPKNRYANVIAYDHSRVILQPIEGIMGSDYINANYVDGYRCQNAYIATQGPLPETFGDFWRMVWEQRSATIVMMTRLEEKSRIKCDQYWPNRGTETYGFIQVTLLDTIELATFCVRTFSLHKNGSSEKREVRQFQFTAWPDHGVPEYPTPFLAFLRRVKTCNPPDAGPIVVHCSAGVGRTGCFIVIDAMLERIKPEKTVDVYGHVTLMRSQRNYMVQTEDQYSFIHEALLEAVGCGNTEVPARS
Procedure: as §1, §2, §3, §4, §5, §6
The PTP Sigma cDNA was amplified from human brain single strand cDNA (Clontech RNA) using the following oligonucleotides: 5′oligo: 5′-[…]-3′ (SEQ ID NO: 12) 3′oligo: 5′-[…]-3′ (SEQ ID NO: 13) and subsequently ligated into pGex 6P-1 Eco RI/Xho I sites.

PTP ALPHA = biological target: T4, PTP ALPHA (Homo sapiens, UniProt P18433); conditions: 25° C.
T4 construct: RTPα intracellular domain construct was obtained; made in house; host or cells: E. coli BL-21 (pGEX 3X)

[1] = pNPP or FDP as substrate, 25° C., read-out: PTP IC50 MEG2
[2] = pNPP or FDP as substrate, 25° C., read-out: PTP IC50 Beta
[3] = pNPP or FDP as substrate, 25° C., read-out: PTP IC50 Sigma

- IC50 (PTP MEG2; [1]): > 100 µM
- IC50 (PTP BETA; [2]): 39.9 µM
- IC50 (PTP SIGMA; [3]): > 100 µM
- IC50 (PTP ALPHA): > 100 µM
SMILES: O=S(=O)(Nc1ccc(CCc2ccc(NS(=O)(=O)C(F)(F)F)cc2)cc1)C(F)(F)F [Example 66, 1,2-Bis(4-trifluoromethylsulfonamidophenyl)ethane]

- IC50 (PTP MEG2; [1]): 34.4 µM
- IC50 (PTP BETA; [2]): 15.2 µM
- IC50 (PTP SIGMA; [3]): 11.6 µM
- IC50 (PTP ALPHA): 27 µM
SMILES: CC(C)(COc1ccc(NS(=O)(=O)C(F)(F)F)cc1)COc1ccc(NS(=O)(=O)C(F)(F)F)cc1 [Example 68, 1,3-Bis(4-trifluoromethylsulfonamidophenoxy)-2,2-dimethylpropane]

- IC50 (PTP MEG2; [1]): > 100 µM
- IC50 (PTP BETA; [2]): > 100 µM
- IC50 (PTP SIGMA; [3]): 41.7 µM
- IC50 (PTP ALPHA): 31 µM
SMILES: O=S(=O)(Nc1ccc(OCCCOc2ccc(NS(=O)(=O)C(F)(F)F)cc2)cc1)C(F)(F)F [Example 69, 1,3-Bis(4-trifluoromethylsulfonamidophenoxy)propane]

- IC50 (PTP MEG2; [1]): 70.7 µM
- IC50 (PTP BETA; [2]): 7 µM
- IC50 (PTP SIGMA; [3]): 38.1 µM
- IC50 (PTP ALPHA): 46 µM
SMILES: O=S(=O)(Nc1ccc(OCCCCOc2ccc(NS(=O)(=O)C(F)(F)F)cc2)cc1)C(F)(F)F [Example 70, 1,4-Bis(4-trifluoromethylsulfonamidophenoxy)butane]

Further lines, the compound ahead of its results:

SMILES: NC(=O)c1cc(Oc2ccc(S(=O)(=O)C(F)(F)F)cc2[N+](=O)[O-])cc(Oc2ccc(S(=O)(=O)C(F)(F)F)cc2[N+](=O)[O-])c1 [Example 30, 3,5-Bis-(2-nitro-4-trifluoromethanesulfonyl-phenoxy)-benzamide]
- IC50 (PTP MEG2; PTP IC50 MEG2, pNPP or FDP as substrate, 25° C.): 64.3 µM
- IC50 (PTP BETA; PTP IC50 Beta, pNPP or FDP as substrate, 25° C.): 3.4 µM
- IC50 (PTP SIGMA; PTP IC50 Sigma, pNPP or FDP as substrate, 25° C.): 26.5 µM
- IC50 (PTP ALPHA): > 100 µM

SMILES: O=C(O)c1cc(Oc2ccc(S(=O)(=O)C(F)(F)F)cc2)cc(Oc2ccc(S(=O)(=O)C(F)(F)F)cc2)c1 [Example 31, 3,5-Bis-(4-trifluoromethanesulfonyl-phenoxy)-benzoic acid]
- IC50 (PTP MEG2; [1]): 9.6 µM
- IC50 (PTP BETA; [2]): 4.5 µM
- IC50 (PTP SIGMA; [3]): 7.7 µM
- IC50 (PTP ALPHA): 6 µM

SMILES: Cc1cc(NS(=O)(=O)C(F)(F)F)ccc1CCc1ccc(NS(=O)(=O)C(F)(F)F)cc1C [Example 67, 1,2-Bis(2-methyl-4-trifluoromethylsulfonamidophenyl)ethane]
- IC50 (PTP MEG2; [1]): 85.7 µM
- IC50 (PTP BETA; [2]): 55.9 µM
- IC50 (PTP SIGMA; [3]): 41.4 µM
- IC50 (PTP ALPHA): 53.6 µM

SMILES: O=S(=O)(Nc1ccc(Oc2ccc(Oc3ccc(NS(=O)(=O)C(F)(F)F)cc3)cc2)cc1)C(F)(F)F [Example 71, 1,4-Bis(4-trifluoromethylsulfonamidophenoxy)benzene]
- IC50 (PTP MEG2; comparison of R groups, read-out: IC50 MEG2): 39.4 µM
- IC50 (PTP MEG2; [1]): 39.4 µM
- IC50 (PTP BETA; comparison of R groups, read-out: IC50 Beta): 12.1 µM
- IC50 (PTP BETA; [2]): 12.1 µM
- IC50 (PTP SIGMA; comparison of R groups, read-out: IC50 Sigma): 44 µM
- IC50 (PTP SIGMA; [3]): 44 µM
- IC50 (PTP ALPHA): 11.9 µM
